Laboratory results as given in EP0179667B1, “N6-substituted adenosines” (priority 1984, dated 1986).
pIC50: −log10 of the molar value.

Experiments:
adenosine A2 receptor = target: T1, adenosine A2 receptor (Rattus norvegicus, UniProt P30543); assay: Adenosine Receptor Binding - A2 Receptor Affinity (RBA2); settings: [3H]NECA, rat striatal membranes; read-out: RBA-2
T1 construct: 5 mg original tissue weight of rat weight of rat striatal membranes; tissue Pel-Freez (Rogers, Arkansas); host or cells: rat striatum, membrane preparation
T1 sequence (P30543 whole entry): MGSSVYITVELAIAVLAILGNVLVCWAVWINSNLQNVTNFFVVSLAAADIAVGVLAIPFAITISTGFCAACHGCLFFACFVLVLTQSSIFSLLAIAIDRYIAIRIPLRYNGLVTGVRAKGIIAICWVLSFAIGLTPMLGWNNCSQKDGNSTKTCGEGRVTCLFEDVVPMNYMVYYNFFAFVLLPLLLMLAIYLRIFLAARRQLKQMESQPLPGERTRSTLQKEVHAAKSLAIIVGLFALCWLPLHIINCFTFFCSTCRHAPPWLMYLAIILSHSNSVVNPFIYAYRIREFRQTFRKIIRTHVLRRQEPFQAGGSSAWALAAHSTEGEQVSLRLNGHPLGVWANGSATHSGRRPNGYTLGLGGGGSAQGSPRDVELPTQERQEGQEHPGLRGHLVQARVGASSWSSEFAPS
Description: Adenosine Receptor Binding - A2 Receptor Affinity (RBA2)
Brains from 200-500 g mixed sex Sprague-Dawley rats were purchased from Pel-Freez (Rogers, Arkansas). […] Brains were thawed and then kept on ice while the striata were dissected out. […] When needed, tissue was thawed at room temperature, disrupted in a Polytron, and kept on ice until used.
All incubations were for 60 minutes at 25°C in 12x75 mm glass tubes containing 1 ml Tris with 5 mg original tissue weight of rat weight of rat striatal membranes, 4 nM [^3H]-N-ethyl adenosine-5'-carboxamide ([^3H]NECA), 50 nM N^6-cyclopentyladenosine (to eliminate A1 receptor binding), 10 mM MgCl2, 0.1 units/ml of adenosine deaminase and 1% dimethylsulfoxide. N^6-Cyclopentyladenosine was dissolved at 10 mM in 0.02 N HCI and diluted in Tris. […] Test compounds were dissolved at 10 mM in dimethylsulfoxide on the same day as the experiment, and diluted in dimethylsulfoxide to 100x the final incubation concentration. […] [^3H]NECA was diluted to 40 nM in Tris. The membrane suspension (5 mg/0.79 ml) contained sufficient MgC12 and adenosine deaminase to give 10 mM and 0.1 units/ml, respectively, final concentration in the incubation. For test compounds with lC50 values less than 1 µM, the order of additions was test compound (10 µl), N^6-cyclopentyladenosine (100 µl), [^3H]NECA (100 µl), and membranes (0.79 ml). […] After all additions, the rack of tubes was vortexed, and the tubes were then incubated for 60 min at 25°C in a shaking water bath. The rack of tubes was vortexed an additional time halfway through the incubation.
incubations were terminated by filtration through 2.4 cm GF/B filters under reduced pressure. Each tube was filtered as follows: the contents of the tube were poured onto the filter, 4 ml of ice-cold Tris were added to the tube and the contents poured onto the filter, and the filter was washed twice with 4 ml of ice-cold Tris. The filtration was complete in about twelve seconds.
Nonspecific binding was defined as binding in the presence of 100 µM N^6-cyclopentyladenosine, and specific binding was defined as total binding minus nonspecific binding. The IC50 was calculated by weighed nonlinear least squares curve-fitting to the mass-action equation. [formula] • where Y is cpm bound • T is cpm total binding without drug • S is cpm specific binding without drug • D is the concentration of drug • and K is the IC50 of the drug Weighting factors were calculated under the assumption that the standard deviation was proportional to the predicted value of Y. Nonspecific binding was treated as a very large (infinite) concentration of drug in the computer analysis.

adenosine A1 receptor = target: T2, adenosine A1 receptor (Rattus norvegicus, UniProt P25099); assay: Adenosine Receptor Binding - A1 Receptor Affinity (RBA1); settings: [3H]-CHA, rat whole brain membranes; read-out: RBA-1
T2 construct: Whole brain minus cerebellum and brainstem from male Long Evans rats (150-200 g) was homogenized; from tissue; host or cells: rat whole brain minus cerebellum and brainstem, membrane homogenate
T2 sequence (P25099 1-326): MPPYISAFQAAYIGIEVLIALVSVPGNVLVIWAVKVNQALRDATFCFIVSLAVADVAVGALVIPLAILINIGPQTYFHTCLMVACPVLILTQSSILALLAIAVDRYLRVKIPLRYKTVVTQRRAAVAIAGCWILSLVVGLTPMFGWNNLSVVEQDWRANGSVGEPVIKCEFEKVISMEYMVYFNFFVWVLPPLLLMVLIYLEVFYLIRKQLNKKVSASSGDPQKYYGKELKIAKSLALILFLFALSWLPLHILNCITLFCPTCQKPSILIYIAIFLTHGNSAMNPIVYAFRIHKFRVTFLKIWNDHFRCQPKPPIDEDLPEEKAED
Description: Adenosine Receptor Binding - A1 Receptor Affinity (RBA1)
Whole brain minus cerebellum and brainstem from male Long Evans rats (150-200 g) was homogenized in 30 volumes of ice-cold 0.05 M Tris-HCI buffer pH 7.7 using a Brinkman Polytron PT-10 (setting number 6 for 20 seconds) and centrifuged for ten minutes at 20,000 x g (Sorvall RC-2), 4°C. The supernatant was discarded, and the pellet was resuspended and centrifuged as before. The pellet was resuspended in 20 ml Tris-HCI buffer containing two International Units/ml of adenosine deaminase (Sigma type III from calf intestinal mucosa), incubated at 37°C for 30 minutes, then subsequently at 0°C for ten minutes. The homogenate was again centrifuged, and the final pellet was resuspended in ice-cold 0.05 M Tris-HCI buffer pH 7.7 to a concentration of 20 mg/ml original wet tissue weight and used immediately.
Tissue homogenate (10 mg/ml) was incubated in 0.05 M Tris-HCI buffer pH 7.7 containing 1.0 nM [^3H]-N^6-cyclohexyladenosine (^3H]-CHA) with or without test agents in triplicate for one hour at 25°C. Incubation volume was 2 ml. Unbound [^3H]-CHA was separated by rapid filtration under reduced pressure through Whatman glass fiber (GF/B) filters. The filters were rinsed three times with 5 ml of ice cold 0.05 M Tris-HCI buffer pH 7.7. The radio-labeled ligand retained on the filter was measured by liquid scintillation spectrophotometry after shaking the filters for one hour or longer on a mechanical shaker in 10 ml of Beckman Ready Solv HP scintillation cocktail.
Nonspecific binding was defined as the binding which occurred in the presence of 1 mM thophylline. […] The Scatchard plot was calculated by linear regression of the line obtained by plotting the amount of radioligand bound (pmoles/gram of tissue) versus [formula] Since the amount of radioligand bound was a small fraction of the total amount added, free radioligand was defined as the concentration (nM) of radioligand added to the incubation mixture. The Hill coefficient was calculated by linear regression of the line obtained by plotting the log of the bound radioligand vs the log of the [formula] The maximal number of binding sites (Bmax) was calculated from the Scatchard plot.

Swiss-Webster male mice [1] = assay: Mouse Activity and Screen Test Procedure (MAST): screen test (ST); format: in vivo; settings: one hour postinjection
From the text: The compounds of the invention are new chemical substances which are useful as pharmaceutical agents for the treatment of psychoses. The antipsychotic activity of representative compounds of the invention was established by the Mouse Activity and Screen Test Procedrue (MAST) described below.
Nine unfasted Swiss-Webster male mice weighing 20-30 g equally divided into three groups for each drug dose to be tested. That is, data for each dose level was generated by three separated groups of three mice each.
A minimum of three dose levels (10, 30, and 100 mg/kg) are tested for each drug. Treatments are administered intraperitoneally one hour prior to testing. All dosages are calculated as parent compound and given in volumes of 10 ml/kg. Compounds are dissolved or suspended in 0.2% Methocel. Control animals are injected with Methocel.
Testing: A two part testing procedure is started one hour postinjection. First, the screen test (ST) is performed (see Pharmac. Biochem. Behav. 6, 351-353, 1977). Briefly this test consists of placing mice on individual wire screens which are then rotated 180 degrees at the start of a 60 second observation period. The number of mice falling off the inverted screen is recorded.
Data: The data obtained from the screen test are expressed as percent of mice falling off the screen. Data derived from locomotor activity of drug treated mice are compared to the activity of vehicle treated animals and are expressed as percent inhibition of spontaneous locomotion. All percentages reported for inhibition of locomotion (LI) are based upon data accumulated for one hour. Both phases of testing are graded: A=60-100%; G=31-59%; and N=0-30%. An overall dose rating is obtained by the following criteria:
LAD refers to the lowest dose at which an A rating is achieved. […] Utilizing this procedure, an overall dose rating of A was obtained for the noted compound at the indicated dose. The compounds are identified in the Examples.

Swiss-Webster male mice [2] = assay: Mouse Activity and Screen Test Procedure (MAST): locomotor activity in actophotometer; format: in vivo; settings: one hour prior to testing
Description: Nine unfasted Swiss-Webster male mice weighing 20-30 g equally divided into three groups for each drug dose to be tested. That is, data for each dose level was generated by three separated groups of three mice each. A minimum of three dose levels (10, 30, and 100 mg/kg) are tested for each drug. Treatments are administered intraperitoneally one hour prior to testing. All dosages are calculated as parent compound and given in volumes of 10 ml/kg. […] Control animals are injected with Methocel. […] The actophotometer consists of a cylindrical chamber whose center is occupied by another cylinder which contains the illumination for six photocells located on the perimeter of the chamber. Six light-beam interruptions equal one count. […] Data: The data obtained from the screen test are expressed as percent of mice falling off the screen. Data derived from locomotor activity of drug treated mice are compared to the activity of vehicle treated animals and are expressed as percent inhibition of spontaneous locomotion. All percentages reported for inhibition of locomotion (LI) are based upon data accumulated for one hour. […] An overall dose rating is obtained by the following criteria: LAD refers to the lowest dose at which an A rating is achieved. […] The compounds are identified in the Examples.

Row | SMILES | pIC50 (adenosine A2 receptor) | pIC50 (adenosine A1 receptor) | Screen test failure (Swiss-Webster male mice [1]; 3 mg/kg intraperitoneally) [%] | Screen test failure (Swiss-Webster male mice [1]; 10 mg/kg intraperitoneally) [%] | Screen test failure (Swiss-Webster male mice [1]; 30 mg/kg intraperitoneally) [%] | Screen test failure (Swiss-Webster male mice [1]; 1 mg/kg intraperitoneally) [%] | Inhibition of mouse locomotor activity (Swiss-Webster male mice [2]; 3 mg/kg intraperitoneally) [%] | Inhibition of mouse locomotor activity (Swiss-Webster male mice [2]; 10 mg/kg intraperitoneally) [%] | Inhibition of mouse locomotor activity (Swiss-Webster male mice [2]; 30 mg/kg intraperitoneally) [%] | Inhibition of mouse locomotor activity (Swiss-Webster male mice [2]; 1 mg/kg intraperitoneally) [%]
1 | CC1(C)O[C@@H]2[C@H](O1)[C@@H](CO)O[C@H]2n1cnc2c(NC3CCCc4ccccc43)ncnc21 (stereo partly drawn) [Example 12, N^6-(1-tetralinyl)-2',3'-O-isopropylidene-adenosine] |  | 4.65 | 0 | 0 | 0 |  | 3 | −1 | −16 | 
2 | CCOC(=O)OC[C@H]1O[C@@H](n2cnc3c(NC4CCCc5ccccc54)ncnc32)[C@H](OC(=O)OCC)[C@@H]1OC(=O)OCC (stereo partly drawn) [Example 19, N^6-1-tetralinyl-2',3',5'-triethylcarbonate-adenosine] |  |  | 0 | 0 | 11 | 11 | 57 | 91 | 95 | 42
3 | O[C@@H]1[C@H](O)[C@@H](COCc2ccccc2)O[C@H]1n1cnc2c(NC3CCCc4ccccc43)ncnc21 (stereo partly drawn) [Example 20, N^6-tetralinyl-5'-benzylether-adenosine] | 4.33 | 5.23 |  |  |  |  |  |  |  | 

The next lines start with results.

Row | pIC50 (adenosine A2 receptor) | pIC50 (adenosine A1 receptor) | Screen test failure (Swiss-Webster male mice [1]; 3 mg/kg intraperitoneally) [%] | Screen test failure (Swiss-Webster male mice [1]; 10 mg/kg intraperitoneally) [%] | Screen test failure (Swiss-Webster male mice [1]; 30 mg/kg intraperitoneally) [%] | Screen test failure (Swiss-Webster male mice [1]; 1 mg/kg intraperitoneally) [%] | SMILES | Inhibition of mouse locomotor activity (Swiss-Webster male mice [2]; 3 mg/kg intraperitoneally) [%] | Inhibition of mouse locomotor activity (Swiss-Webster male mice [2]; 10 mg/kg intraperitoneally) [%] | Inhibition of mouse locomotor activity (Swiss-Webster male mice [2]; 30 mg/kg intraperitoneally) [%] | Inhibition of mouse locomotor activity (Swiss-Webster male mice [2]; 1 mg/kg intraperitoneally) [%]
4 | 5.58 | 6.35 |  |  |  |  | COc1cccc2c1CCC[C@H]2Nc1ncnc2c1ncn2[C@@H]1O[C@H](CO)[C@@H](O)[C@H]1O [Example 11, (R)-N^6-[5-methoxy-1-aminotetralin]-adenosine] |  |  |  | 
5 | 5.10 | 5.97 |  |  |  |  | O=C(OC[C@H]1O[C@@H](n2cnc3c(NC4CCCc5ccccc54)ncnc32)[C@H](O)[C@@H]1O)c1ccccc1 (stereo partly drawn) [Example 13, N^6-(1-tetralinyl)-5'-benzoyladenosine] |  |  |  | 
